Paper PMC10999543, “Identification of kinase modulators as host-directed therapeutics against intracellular methicillin-resistant Staphylococcus aureus” (Frontiers in Cellular and Infection Microbiology, 2024)

What was measured:
EGFR = test system: EGFR; parameters: method as in Elkins et al., 2016; conditions: PKIS1, Caliper assay, ref Elkins et al., 2016; cited from earlier work
HER4 = test system: HER4; parameters: method as in Elkins et al., 2016; conditions: PKIS1, Caliper assay, ref Elkins et al., 2016; cited from earlier work
A549 cells = type: cell-based, human; conditions: 10 µM
Procedure: (§1) Before harvesting or lysing the cells of the intracellular infection assays, the supernatant from the cells was collected to quantify LDH release by the cells using the LDH cytotoxicity detection kit (Roche, Merck, Darmstadt, Germany) according to the manufacturer’s instructions. Triton X-100 results in maximum LDH release by permeabilizing the cells and was used as positive control. Quantification was performed with the EnVision plate reader.

AMPK = experiment: Phosphorylation of ACC1 at Ser80 by flow cytometry (readout for AMPK activity); type: cell-based, human; conditions: MRSA-infected HeLa cells
Procedure: To determine the expression of the HER kinase family, cells were harvested using PBS + 5 mM EDTA and fixed in 1% paraformaldehyde for 20 min at RT. To determine phosphorylation of ACC1 at Ser80, cells were harvested by incubation in pre-warmed trypsin-EDTA, which was neutralized after 5 min with an equal volume of FBS, and fixed in 4% ultra-pure formaldehyde (Bio Trend, Cologne, Germany) for 20 min at RT. For intracellular staining, the cells were permeabilized in ice-cold methanol for 20 min. Subsequently, the cells were blocked in PBS + 0.5% bovine serum albumin + 0.005% NaN3 (both from Sigma-Aldrich; FACS buffer) + 5% human serum for 5 min. The cells were labelled with primary and secondary antibodies (listed in Supplementary Table S1 ) in FACS buffer. Samples were measured on the FACSLyric and analysed using FlowJo 10 (FlowJo LCC, Ashland, OR, USA).

LC3 = experiment: Autophagosome formation by western blot (LC3-II/LC3-I); type: cell-based, human; conditions: MRSA-infected HeLa cells
Procedure: HeLa cells were seeded with 100,000 cells/well in 24-wells plates. In short, the cells were lysed in EBSB buffer (10% v/v glycerol, 3% SDS, 100 mM Tris-HCl, pH 6.8) supplemented with one tablet of cOmplete EDTA-free protease inhibitor cocktail (Sigma-Aldrich) and proteins were denaturated at 95°C for 5 min. Protein concentrations were determined using a Pierce™ BCA protein assay kit (Thermo Fisher Scientific). Samples were diluted in Laemmli sample buffer and loaded on a 15-well 4–20% Mini-PROTEAN® TGX™ Precast Protein Gel for electrophoresis (both from Bio-Rad, Hercules, CA, USA). […] Membranes were blocked for 1h in PBS supplemented with 5% w/v non-fat dry milk. Next, the membranes were cut and each protein was separately stained with primary antibodies against actin and LC3B in PBS supplemented with 5% w/v non-fat dry milk, or against AMPKα and AMPKα-pThr172 in PBS supplemented with 5% BSA (antibodies listed in Supplementary Table S1 ). Membranes were stained with secondary antibodies in PBS supplemented with 5% w/v non-fat dry milk. After each staining, membranes were washed four times in PBS + 0.1% Tween20. Prior to revelation, the membranes were incubated for 10 min in enhanced chemiluminescence (ECL) Prime Western Blotting System reagent (GE Healthcare, Hoevelaken, The Netherlands). […] Protein bands were quantified using Fiji software ([Schindelin et al., 2012]).

MCF7 cells = type: cell-based, human; conditions: 10 µM
Procedure: as §1

For `O=S(=O)(CCNCc1ccc(-c2ccc3ncnc(Nc4ccc(OCc5cccc(F)c5)c(Cl)c4)c3c2)o1)c1ccccc1` [GW633459A], the “% inhibition at 1 µM EGFR” value (EGFR) is given as 83% and the “% inhibition at 1 µM HER4” value (HER4) is given as 89%.
In the case of `COc1ccc2[nH]c3c4[nH]c5ccc(OC)cc5c4c4c(c3c2c1)C(=O)NC4=O` [GW296115X], the “cell viability of MRSA-infected cells (LDH-release)” value (A549 cells) is reported as “rescued the loss of viability”, the “ACC1 phosphorylation at Ser80” value (AMPK) is reported as “increased ACC1 phosphorylation” and the “accumulation of LC3-II” value (LC3; in the presence of bafilomycin A1 (100 nM)) is reported as “strong accumulation of LC3-II”. The “formation of LC3-II” value (LC3; without bafilomycin) was “not affected”.
With `CC(C)c1nc(-c2cccc(NS(=O)(=O)c3c(F)cccc3F)c2F)c(-c2ccnc(Nc3ccc(N4CCOCC4)nc3)n2)s1` [GSK2008607A] the “cell viability of MRSA-infected cells (LDH-release)” value (MCF7 cells) was “significantly improved the overall survival”.
